According to patent US6372488B1, “AMPA-binding human GluR4 receptors” (NPS Allelix Corp., priority 1992, dated 2002):

Target: T1, human GluR4B receptor (Homo sapiens, UniProt P48058)
T1 construct: transported to the cell surface in mature form, lacking the signal peptide and consisting of 881 amino acids; expressed in transfected cells; host or cells: COS-1 cells (ATCC CRL 1650), transient, plasmid pcDNAI/humGluR4B
Test: ligand binding assay (NMDA), membranes of human GluR4B receptor-producing COS cells
Conditions: COS cell membrane preparation

T1 sequence (P48058 21-902): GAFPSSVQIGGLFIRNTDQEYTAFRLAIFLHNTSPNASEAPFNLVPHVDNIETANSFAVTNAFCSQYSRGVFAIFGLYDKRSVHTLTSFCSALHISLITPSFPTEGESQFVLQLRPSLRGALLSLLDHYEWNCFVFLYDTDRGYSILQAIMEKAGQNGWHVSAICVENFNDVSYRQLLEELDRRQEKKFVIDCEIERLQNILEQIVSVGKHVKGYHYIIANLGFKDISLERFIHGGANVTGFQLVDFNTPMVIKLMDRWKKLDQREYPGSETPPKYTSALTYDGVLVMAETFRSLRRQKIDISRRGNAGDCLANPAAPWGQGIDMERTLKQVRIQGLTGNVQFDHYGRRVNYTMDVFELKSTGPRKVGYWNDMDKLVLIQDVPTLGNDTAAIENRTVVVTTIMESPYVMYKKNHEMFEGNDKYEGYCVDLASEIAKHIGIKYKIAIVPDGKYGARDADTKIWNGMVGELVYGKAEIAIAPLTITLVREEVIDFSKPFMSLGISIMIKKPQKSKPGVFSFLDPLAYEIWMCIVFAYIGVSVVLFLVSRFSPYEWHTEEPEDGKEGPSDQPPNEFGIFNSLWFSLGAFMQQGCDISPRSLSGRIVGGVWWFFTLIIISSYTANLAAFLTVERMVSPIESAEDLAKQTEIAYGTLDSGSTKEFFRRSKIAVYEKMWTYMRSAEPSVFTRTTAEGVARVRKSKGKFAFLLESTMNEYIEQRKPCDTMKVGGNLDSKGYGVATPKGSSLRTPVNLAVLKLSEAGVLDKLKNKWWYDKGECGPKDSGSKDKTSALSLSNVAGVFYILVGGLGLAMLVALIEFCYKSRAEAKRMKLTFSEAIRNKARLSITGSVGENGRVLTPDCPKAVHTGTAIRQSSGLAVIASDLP

CN[C@H](CC(=O)O)C(=O)O [NMDA, N-methyl-D-aspartate]
binding of NMDA to human GluR4B receptor: little or no demonstrable binding
